Measurements: patent US4298735A, “Folic acid derivatives” (Union Carbide Corporation, priority 1979, dated 1981)

What was measured:
whole milk folate binder = whole milk folate binder (Bos taurus, UniProt P02702); test: Folate competitive protein binding (CPB) radioassay; conditions: for dose response curves generated using pteroyltyrosine [125I] as label: at high pH compared with lower pH
Experimental: The use of the Centria® analytical system, Union Carbide Corporation, in this example, is meant to be illustrative and other methods, both automated and manual, obvious to those skilled in the clinical diagnostic art are also within the scope of this invention.
Briefly, the Centria® system is a tri-modular instrument in which reagents are pipetted on to a multi-well transfer disk and mixed centrifugally with standards or patients' samples. After a suitable incubation period, the components are separated by a centrifugal elution of the bound and free fractions and the bound fractions counted three at a time.
Folic acid and N^5 -methyltetrahydrofolic acid standards in the range 0-20 nanograms/milliliter were prepared in 0.05 M sodium borate, pH 9.3 containing 0.1% human serum albumin. The whole milk binder was prepared according to the method of Rothenberg et al., ^(3) and dissolved in sodium borate, pH 9.3 containing 0.1% human serum albumin
(50 microliters, 20,000 cpm) plus 85 microliters of water with the limited number of binding sites contained in a 200 microliter solution of whole milk folate binder. The binding reactions may be shown as follows:
A gamma counter which counts three of the 36 positions at a time for one minute, so constructed that only the eluate bottom portion of the test tubes fits into the counter, was then used to count all samples. Sequential counting of the tubes thus required about 12 minutes. A small computer with printout capability then printed out the data after completion of the cycle.

[1] = Storage stability of the radioiodinated label; format: physicochemical; conditions: stored in a 50% aqueous propylene glycol solution, ten-week period
Excerpt: Radioiodination of biological compounds frequently leads to marked chemical instability and subsequent degradation of the radiolabel. This problem is often accentuated in the radiolabel when the materials to be radioiodinated are known to be sensitive to oxygen, light or extremes in pH, as is the case with folic acid and some derivatives.
The reaction mixture was applied to a 1×20 cm Sephadex G25, fine, (Pharmacia Fine Chemicals, Uppsala, Sweden) column hydrated with distilled water and equilibrated with 0.1 M potassium phosphate, pH 7.5. The column was eluted with 0.1 M potassium phosphate buffer and 3 ml fractions collected. The product "peak" fractions 32-34 were collected, diluted 1:1 with propylene glycol and stored below 0° C.

carboxypeptidase A = test: Enzymatic hydrolysis of pteroyltyrosine followed by UV; format: biochemical; conditions: 0.025 M Tris-HCl, 2 mM zinc chloride, pH 7.3, two hours, ambient temperature
Experimental: Two milliliters of a solution of pteroyltrosine (0.75 mmoles/ml) in 0.025 M Tris-HCl containing 2 mM zinc chloride, pH 7.3 were diluted to 10 ml with distilled water. A portion of this solution (2 ml) was placed in a 1 cm cuvette and in another was placed 2 ml of distilled water. To each of the cuvettes was added 50 μl of a solution of 100 μl carboxypeptidase A suspension (Aldrich chemical, lot 060637) diluted with 0.9 ml of 10% lithium chloride.
The time course of the reaction was followed spectrophotometrically (uv) over a period of two hours at ambient temperature. An increase and shift in max from 280 to 277 nm and a marked decrease in absorption at 220 nm was observed. Two isosbestic points at 242 and 282 nm were visible.

Chain of whole milk folate binder (P02702 20-234): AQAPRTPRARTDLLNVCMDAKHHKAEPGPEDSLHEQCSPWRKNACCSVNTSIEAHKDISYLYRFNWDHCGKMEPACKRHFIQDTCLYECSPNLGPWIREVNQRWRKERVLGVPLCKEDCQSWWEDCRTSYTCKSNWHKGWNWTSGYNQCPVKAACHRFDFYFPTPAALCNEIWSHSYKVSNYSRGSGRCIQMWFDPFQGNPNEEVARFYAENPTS

SMILES: CN1c2c(nc(N)[nH]c2=O)NCC1CNc1ccc(C(=O)N[C@@H](CCC(=O)O)C(=O)O)cc1 (some centres unmarked) [N^5 -methyl THF, N-5-methyltetrahydrofolic acid]
- dose response curves generated using pteroyltyrosine [125I] as label (whole milk folate binder): more nearly coincident

SMILES: Nc1nc2ncc(CNc3ccc(C(=O)N[C@@H](CCC(=O)O)C(=O)O)cc3)nc2c(=O)[nH]1 [folic acid]
- dose response curves generated using pteroyltyrosine [125I] as label (whole milk folate binder): more nearly coincident

SMILES: Nc1nc(O)c2nc(CNc3ccc(C(=O)N[C@@H](Cc4ccc(O)c([125I])c4)C(=O)O)cc3)cnc2n1 [pteroyltyrosine [^125 I]]
- stability of radioiodinated product (assay performance on storage) [1]: no deterioration in assay performance
- performance as radiolabel in CPB radioassay for folic acid (whole milk folate binder; folic acid concentration range of 0-20 ng/ml): effective radiolabel

SMILES: Nc1nc2ncc(CNc3ccc(C(=O)N[C@@H](Cc4ccc(O)cc4)C(=O)O)cc3)nc2c(=O)[nH]1 [pteroyltyrosine, Pteroyl-L-Tyrosine]
- hydrolysis by carboxypeptidase A (UV time course, final spectrum) (carboxypeptidase A): final spectrum was very similar to that of pteroic acid
